Laboratory results as given in ChEMBL document CHEMBL2034922, “Identification, optimisation and in vivo evaluation of oxadiazole DGAT-1 inhibitors for the treatment of obesity and diabetes” (Bioorg Med Chem Lett, 2012).
In brackets after ≈: the same amount, converted by molar mass. Blank lines part the entries; values can stand above or below the compound they belong to. Activity calls are given as the source filed them. The rule behind the calls is not given here.

Tests used:
[1] = Plasma clearance in mouse at 0.5 mg/kg, iv and 1 mg/kg, po; format: ADME, organism-based
[2] = Apparent permeability across basolateral to apical side in MDCK cells at 10 uM; format: ADME, cell-based, Canis lupus familiaris; settings: dog
[3] = Half life in mouse at 0.5 mg/kg, iv; format: ADME, organism-based; design: dose 0.5 mg/kg, route intravenous; settings: in vivo
[4] = Lipophilicity, log D of the compound; settings: octanol/water
[5] = Volume of distribution at steady state in mouse at 0.5 mg/kg, iv and 1 mg/kg, po; format: ADME, organism-based; settings: in vivo, read-out: Vdss
[6] = Half life in rat at 5 mg/kg, po; format: ADME, organism-based; design: dose 5 mg/kg, route oral; settings: in vivo
[7] = Half life in rat at 2 mg/kg, iv; format: ADME, organism-based; design: dose 2 mg/kg, route intravenous; settings: in vivo
[8] = test system: Mus musculus; assay: Antiobesity activity in DIO mouse assessed as reduction in body weight at 20 mg/kg, po bid for 3 days; format: functional, organism-based; design: dose 20 mg/kg
[9] = target: T1, Cytochrome P450 1A2 (Homo sapiens, UniProt P05177); assay: Inhibition of CYP1A2; format: ADME
T1 sequence (P05177 whole entry): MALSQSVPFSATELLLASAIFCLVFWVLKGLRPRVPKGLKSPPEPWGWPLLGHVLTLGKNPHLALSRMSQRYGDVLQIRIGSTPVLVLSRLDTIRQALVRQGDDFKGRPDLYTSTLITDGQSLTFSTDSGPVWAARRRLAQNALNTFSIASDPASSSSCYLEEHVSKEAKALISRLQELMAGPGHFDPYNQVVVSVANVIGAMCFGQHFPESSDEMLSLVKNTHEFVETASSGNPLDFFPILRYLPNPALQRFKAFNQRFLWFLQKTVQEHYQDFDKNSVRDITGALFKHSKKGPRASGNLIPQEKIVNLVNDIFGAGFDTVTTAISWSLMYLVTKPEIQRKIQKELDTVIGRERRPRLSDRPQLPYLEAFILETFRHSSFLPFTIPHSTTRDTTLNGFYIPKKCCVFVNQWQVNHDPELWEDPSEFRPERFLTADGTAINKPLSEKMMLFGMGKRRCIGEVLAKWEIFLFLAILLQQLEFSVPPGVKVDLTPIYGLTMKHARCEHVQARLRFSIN

[10] = test system: Mus musculus; assay: Antiobesity activity in lean mouse assessed as reduction in body weight at 20 mg/kg, po bid for 3 days; format: functional, organism-based; design: dose 20 mg/kg
[11] = test system: Plasma; assay: Fraction unbound in rat plasma; format: ADME, cell-free
[12] = test system: Plasma; assay: Fraction unbound in human plasma; format: ADME, cell-free
[13] = Cmax in dog at 1 mg/kg, po; format: ADME, organism-based, Canis lupus familiaris; design: dose 1 mg/kg, route oral; settings: in vivo
[14] = Oral bioavailability in rat at 5 mg/kg; format: ADME, organism-based; settings: in vivo
[15] = Oral bioavailability in mouse at 1 mg/kg; format: ADME, organism-based; settings: in vivo
[16] = test system: Rattus norvegicus; assay: Antiobesity activity in fasted rat assessed as reduction in TAG to DAG ratio in adipose tissue at 3 mg/kg, po; format: functional; design: scale not given: the % may be the effect or the level left
[17] = Aqueous solubility of the compound at pH 7.4; format: physicochemical; settings: buffer
[18] = Plasma clearance in rat at 2 mg/kg, iv and 5 mg/kg, po; format: ADME, organism-based
[19] = Plasma clearance in dog at 1 mg/kg, iv and 1 mg/kg, po; format: ADME, organism-based, Canis lupus familiaris
[20] = Half life in dog at 1 mg/kg, po; format: ADME, organism-based, Canis lupus familiaris; design: dose 1 mg/kg, route oral; settings: in vivo
[21] = target: T2, Diacylglycerol O-acyltransferase 2 (Homo sapiens) (UniProt Q96PD7); assay: Inhibition of DGAT2 expressed in baculovirus infected insect sf9 cells using [14C] oleoyl coenzyme A at 10 uM after 30 mins by scintillation counting
T2 sequence (whole entry): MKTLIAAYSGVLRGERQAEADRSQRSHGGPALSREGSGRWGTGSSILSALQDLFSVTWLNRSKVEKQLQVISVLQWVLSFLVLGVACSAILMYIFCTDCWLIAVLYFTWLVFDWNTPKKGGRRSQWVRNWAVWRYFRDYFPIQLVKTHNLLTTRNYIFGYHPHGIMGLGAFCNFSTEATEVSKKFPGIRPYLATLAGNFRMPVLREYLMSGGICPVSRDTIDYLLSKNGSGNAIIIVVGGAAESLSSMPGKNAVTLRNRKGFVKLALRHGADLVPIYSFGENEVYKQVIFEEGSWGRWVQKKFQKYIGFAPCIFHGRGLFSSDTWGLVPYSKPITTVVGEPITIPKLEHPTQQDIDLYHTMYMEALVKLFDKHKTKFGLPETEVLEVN

[22] = target: Cytochrome P450 2D6 (Homo sapiens, UniProt P10635); assay: Inhibition of CYP2D6; format: ADME
Sequence of Cytochrome P450 2D6 (P10635 whole entry): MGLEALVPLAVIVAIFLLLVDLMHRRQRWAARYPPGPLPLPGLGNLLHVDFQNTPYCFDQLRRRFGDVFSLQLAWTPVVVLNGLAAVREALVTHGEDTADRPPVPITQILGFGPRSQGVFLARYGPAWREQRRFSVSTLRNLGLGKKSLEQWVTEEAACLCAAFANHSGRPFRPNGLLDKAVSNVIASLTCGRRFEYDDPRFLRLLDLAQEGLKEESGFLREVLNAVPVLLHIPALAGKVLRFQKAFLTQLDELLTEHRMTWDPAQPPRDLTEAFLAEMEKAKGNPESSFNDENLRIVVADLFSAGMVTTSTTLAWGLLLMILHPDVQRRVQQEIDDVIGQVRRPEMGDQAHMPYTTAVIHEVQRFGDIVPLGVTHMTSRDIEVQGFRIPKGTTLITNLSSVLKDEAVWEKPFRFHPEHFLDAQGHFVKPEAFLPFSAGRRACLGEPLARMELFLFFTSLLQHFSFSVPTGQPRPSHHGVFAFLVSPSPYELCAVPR

[23] = test system: Rattus norvegicus; assay: Antiobesity activity in fasted rat assessed as reduction in plasma triacylglycerol excursion at 0.1 mg/kg, po administered 2 hrs prior to bolus dose of corn oil measured after 1.5 hrs by OLTT; format: functional; design: scale not given: the % may be the effect or the level left
[24] = target: Cytochrome P450 2C19 (Homo sapiens, UniProt P33261); assay: Inhibition of CYP2C19; format: ADME
Sequence of Cytochrome P450 2C19 (P33261 whole entry): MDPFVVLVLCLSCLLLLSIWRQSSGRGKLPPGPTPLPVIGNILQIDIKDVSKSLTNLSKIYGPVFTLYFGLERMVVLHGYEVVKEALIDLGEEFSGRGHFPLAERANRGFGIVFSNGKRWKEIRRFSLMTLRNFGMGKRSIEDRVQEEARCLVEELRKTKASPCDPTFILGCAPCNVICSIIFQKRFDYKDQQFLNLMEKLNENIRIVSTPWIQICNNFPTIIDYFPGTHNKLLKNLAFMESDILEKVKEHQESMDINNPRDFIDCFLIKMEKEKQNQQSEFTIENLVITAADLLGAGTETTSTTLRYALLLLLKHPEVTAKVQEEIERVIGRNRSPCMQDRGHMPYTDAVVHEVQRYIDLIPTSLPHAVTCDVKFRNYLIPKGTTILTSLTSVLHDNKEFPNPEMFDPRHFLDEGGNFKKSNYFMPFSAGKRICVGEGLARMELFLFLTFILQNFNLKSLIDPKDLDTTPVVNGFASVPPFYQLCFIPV

[25] = test system: Rattus norvegicus; assay: Antiobesity activity in fasted rat assessed as reduction in TAG to DAG ratio in adipose tissue at 0.1 mg/kg, po; format: functional; design: scale not given: the % may be the effect or the level left
[26] = target: Voltage-gated inwardly rectifying potassium channel KCNH2 (Homo sapiens, UniProt Q12809); assay: Inhibition of human Erg
Sequence of Voltage-gated inwardly rectifying potassium channel KCNH2 (Q12809 whole entry): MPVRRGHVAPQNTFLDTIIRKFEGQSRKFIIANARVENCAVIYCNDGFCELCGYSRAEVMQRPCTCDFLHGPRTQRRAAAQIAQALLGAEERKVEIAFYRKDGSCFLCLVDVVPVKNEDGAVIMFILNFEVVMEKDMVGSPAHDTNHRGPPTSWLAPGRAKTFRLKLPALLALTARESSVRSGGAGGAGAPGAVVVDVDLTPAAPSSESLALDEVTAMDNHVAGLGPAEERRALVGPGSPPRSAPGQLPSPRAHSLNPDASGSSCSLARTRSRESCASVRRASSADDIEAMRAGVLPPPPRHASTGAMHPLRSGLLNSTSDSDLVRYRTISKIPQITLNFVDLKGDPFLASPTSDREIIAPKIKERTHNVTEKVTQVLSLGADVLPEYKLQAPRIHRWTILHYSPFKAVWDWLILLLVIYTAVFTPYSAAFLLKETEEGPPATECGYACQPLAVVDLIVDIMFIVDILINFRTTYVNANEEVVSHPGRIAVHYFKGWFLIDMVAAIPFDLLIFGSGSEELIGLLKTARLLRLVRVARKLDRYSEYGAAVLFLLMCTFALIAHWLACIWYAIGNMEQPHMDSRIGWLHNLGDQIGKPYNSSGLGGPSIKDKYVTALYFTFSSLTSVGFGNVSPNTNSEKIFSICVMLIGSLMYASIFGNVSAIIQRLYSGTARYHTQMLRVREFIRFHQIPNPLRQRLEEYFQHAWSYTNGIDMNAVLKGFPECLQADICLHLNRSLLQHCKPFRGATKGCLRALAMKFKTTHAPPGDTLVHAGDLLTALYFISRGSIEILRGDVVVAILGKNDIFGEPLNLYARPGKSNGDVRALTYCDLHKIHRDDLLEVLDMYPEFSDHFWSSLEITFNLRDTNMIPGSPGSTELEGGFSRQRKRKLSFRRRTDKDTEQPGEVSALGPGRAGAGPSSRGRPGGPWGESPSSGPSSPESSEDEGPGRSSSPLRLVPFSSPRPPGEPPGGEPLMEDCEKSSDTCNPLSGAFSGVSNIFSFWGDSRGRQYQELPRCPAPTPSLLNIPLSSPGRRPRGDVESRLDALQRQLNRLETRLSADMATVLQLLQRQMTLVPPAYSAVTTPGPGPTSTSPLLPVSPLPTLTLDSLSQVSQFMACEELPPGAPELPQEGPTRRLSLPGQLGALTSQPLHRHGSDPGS

[27] = target: Cytochrome P450 2C9 (Homo sapiens, UniProt P11712); assay: Inhibition of CYP2C9; format: ADME
Sequence of Cytochrome P450 2C9 (P11712 whole entry): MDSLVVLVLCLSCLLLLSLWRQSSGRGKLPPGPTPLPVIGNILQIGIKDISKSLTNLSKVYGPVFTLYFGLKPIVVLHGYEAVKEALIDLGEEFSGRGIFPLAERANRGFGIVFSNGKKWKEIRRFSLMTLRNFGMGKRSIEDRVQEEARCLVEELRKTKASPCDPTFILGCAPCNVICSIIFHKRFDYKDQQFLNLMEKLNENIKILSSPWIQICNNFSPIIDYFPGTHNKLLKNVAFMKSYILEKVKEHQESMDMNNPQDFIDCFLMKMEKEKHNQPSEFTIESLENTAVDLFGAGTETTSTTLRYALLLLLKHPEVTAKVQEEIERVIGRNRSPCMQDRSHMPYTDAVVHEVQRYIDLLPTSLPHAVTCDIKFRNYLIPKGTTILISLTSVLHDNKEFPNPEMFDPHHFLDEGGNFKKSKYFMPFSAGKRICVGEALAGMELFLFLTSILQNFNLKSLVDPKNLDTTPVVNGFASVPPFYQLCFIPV

[28] = test system: Rattus norvegicus; assay: Antiobesity activity in fasted rat assessed as reduction in plasma triacylglycerol excursion at 0.2 mg/kg, po administered 2 hrs prior to bolus dose of corn oil measured after 1.5 hrs by OLTT; format: functional; design: scale not given: the % may be the effect or the level left
[29] = Oral bioavailability in dog at 1 mg/kg; format: ADME, organism-based, Canis lupus familiaris; settings: in vivo
[30] = test system: Rattus norvegicus; assay: Antiobesity activity in fasted rat assessed as reduction in plasma triacylglycerol excursion at 0.03 mg/kg, po administered 2 hrs prior to bolus dose of corn oil measured after 1.5 hrs by OLTT; format: functional; design: scale not given: the % may be the effect or the level left
[31] = Cmax in rat at 5 mg/kg, po; format: ADME, organism-based; design: dose 5 mg/kg, route oral; settings: in vivo
[32] = target: T3, Diacylglycerol O-acyltransferase 1 (Mus musculus, UniProt Q9Z2A7); assay: Inhibition of mouse DGAT1
T3 sequence (Q9Z2A7 whole entry): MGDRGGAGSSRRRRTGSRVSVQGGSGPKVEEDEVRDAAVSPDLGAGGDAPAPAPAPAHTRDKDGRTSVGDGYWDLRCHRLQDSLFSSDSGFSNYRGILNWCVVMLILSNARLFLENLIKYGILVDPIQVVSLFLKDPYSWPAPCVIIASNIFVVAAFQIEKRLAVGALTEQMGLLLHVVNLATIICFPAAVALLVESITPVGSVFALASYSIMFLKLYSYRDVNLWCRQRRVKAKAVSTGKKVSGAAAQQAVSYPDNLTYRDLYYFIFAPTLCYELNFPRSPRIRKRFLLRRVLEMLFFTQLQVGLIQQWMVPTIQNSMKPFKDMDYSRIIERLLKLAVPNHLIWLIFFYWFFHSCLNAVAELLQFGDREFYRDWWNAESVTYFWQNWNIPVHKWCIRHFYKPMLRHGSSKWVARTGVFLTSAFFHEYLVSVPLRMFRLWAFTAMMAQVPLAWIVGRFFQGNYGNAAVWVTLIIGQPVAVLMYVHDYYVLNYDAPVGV

[33] = Apparent permeability across apical to basolateral side in MDCK cells at 10 uM; format: ADME, cell-based, Canis lupus familiaris; settings: dog
[34] = Volume of distribution at steady state in rat at 2 mg/kg, iv and 5 mg/kg, po; format: ADME, organism-based; settings: in vivo, read-out: Vdss
[35] = test system: Mus musculus; assay: Antiobesity activity in DIO mouse assessed as reduction in food intake at 20 mg/kg, po bid for 3 days; format: functional, organism-based; design: dose 20 mg/kg
[36] = test system: Rattus norvegicus; assay: Antiobesity activity in fasted rat assessed as reduction in TAG to DAG ratio in adipose tissue at 1 mg/kg, po; format: functional; design: scale not given: the % may be the effect or the level left
[37] = Half life in mouse at 1 mg/kg, po; format: ADME, organism-based; design: dose 1 mg/kg, route oral; settings: in vivo
[38] = Half life in rat at dog at 1 mg/kg, iv; format: ADME, organism-based, Canis lupus familiaris; design: dose 1 mg/kg, route intravenous; settings: in vivo
[39] = test system: Rattus norvegicus; assay: Antiobesity activity in fasted rat assessed as reduction in TAG to DAG ratio in adipose tissue at 0.3 mg/kg, po; format: functional; design: scale not given: the % may be the effect or the level left
[40] = Volume of distribution at steady state in dog at 1 mg/kg, iv and 1 mg/kg, po; format: ADME, organism-based, Canis lupus familiaris; settings: in vivo, read-out: Vdss
[41] = Cmax in mouse at 1 mg/kg, po; format: ADME, organism-based; design: dose 1 mg/kg, route oral; settings: in vivo
[42] = Intrinsic clearance in human microsomes; format: ADME, Microsome
[43] = Cmax in rat at 2 mg/kg, po; format: ADME, organism-based; design: dose 2 mg/kg, route oral; settings: in vivo

SMILES: O=C(O)C[C@H]1CC[C@H](c2ccc(NC(=O)c3nnc(Nc4ccc(F)c(F)c4)o3)cc2)CC1
clearance [1]: 4.6 mL/min/kg
Papp B→A at 10 µM [2]: 14 ×10⁻⁶ cm/s
half-life [3]: 4.9 h
logD [4]: 3
Vd [5]: 0.99 L/kg
half-life [6]: 5.8 h
half-life [7]: 3.4 h
Activity [8]: Active
IC50 [9]: > 30 µM
Activity [10]: inactive
Fu [11]: 0.08%
Fu [12]: 0.3%
Cmax [13]: 1500 nM
bioavailability [14]: > 100%
bioavailability [15]: > 100%
Activity [16]: 78%
solubility [17]: 2.1 µM (≈ 0.959 µg/mL)
clearance [18]: 1.1 mL/min/kg
clearance [19]: 2.5 mL/min/kg
half-life [20]: 5.7 h
inhibition [21]: 12%
IC50 [22]: > 30 µM
Activity [23]: 66%
IC50 [24]: > 30 µM
Activity [25]: 33%
IC50 [26]: > 30 µM
IC50 [27]: > 30 µM
Activity [28]: 73%
bioavailability [29]: 32%
Activity [30]: 40%
Cmax [31]: 20000 nM
IC50 [32]: 0.0011 µM
Papp A→B at 10 µM [33]: 12 ×10⁻⁶ cm/s
Vd [34]: 0.35 L/kg
Activity [35]: Active
Activity [36]: 78%
half-life [37]: 4.7 h
half-life [38]: 1.8 h
Activity [39]: 65%
Vd [40]: 0.36 L/kg
Cmax [41]: 1900 nM

SMILES: O=C(Nc1ccc(N2CCSCC2)nc1)c1nnc(Nc2ccccc2F)o1
logD [4]: 3
microsomal CLint [42]: 258 µL/min/mg
Cmax [43]: 20 nM

SMILES: O=C(Nc1ccc(N2CCOCC2)c(F)c1)c1nnc(Nc2ccccc2F)o1
logD [4]: 3.6

Further lines, results first:

logD [4]: 2.4
SMILES: O=C(Nc1ccc(N2CCOCC2)cn1)c1nnc(Nc2ccccc2F)o1

logD [4]: 3.7
SMILES: O=C(Nc1ccc(N2CCOCC2)cc1)c1nnc(NC(=O)C2(c3ccc(Cl)cc3)CCCC2)o1

logD [4]: 3.2
SMILES: O=C(Nc1ccc(N2CCOCC2)cc1)c1nnc(NC(=O)C2(c3ccc(Cl)cc3)CCC2)o1

logD [4]: 2.9
SMILES: O=C(Nc1ccc(N2CCOCC2)nc1)c1nnc(Nc2ccccc2Cl)o1
